Test results reported in the supplement of paper PMC5908809.

Columns and labels:
[1] = test system: normal NK cells expanded with K562-aAPC; test: percent inhibition of viability; higher = more inhibition; conditions: 72 h, IL-2 2.5 ng/mL
Protocol: (§1)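 Drug sensitivity and resistance testing on K562-aAPC-expanded normal NK cells: 5 concentrations (10-fold steps over a 10,000-fold range), 72 h at 37 °C, viability by CellTiter-Glo normalised to DMSO and benzethonium chloride controls; DSS from the fitted curve.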

[2] = test system: DERL-7 (IL-2 2.5 ng/mL); test: as above; conditions: 72 h
[3] = test system: IMC-1 (IL-2 20 ng/mL); test: as above; conditions: 72 h
[4] = test system: KAI3 (IL-2 2.5 ng/mL); test: as above; conditions: 72 h
[5] = test system: KHYG-1 (IL-2 2.5 ng/mL); test: as above; conditions: 72 h
[6] = test system: NK-92 (IL-2 2.5 ng/mL); test: as above; conditions: 72 h
[7] = test system: NK-YS (IL-2 2.5 ng/mL); test: as above; conditions: 72 h
[8] = test system: NKL (IL-2 2.5 ng/mL); test: as above; conditions: 72 h
[9] = test system: SNK-6 (IL-2 2.5 ng/mL); test: as above; conditions: 72 h
[10] = test system: YT (IL-2 2.5 ng/mL); test: as above; conditions: 72 h
[11] = test system: normal primary NK cells, pool 1 (3 donors) (IL-2 2.5 ng/mL); test: as above; conditions: 72 h
[12] = test system: normal primary NK cells, pool 1 (3 donors), resting (IL-2 0 ng/mL); test: as above; conditions: 72 h
[13] = test system: normal primary NK cells, pool 2 (3 donors) (IL-2 2.5 ng/mL); test: as above; conditions: 72 h
[14] = test system: normal primary NK cells, pool 3 (3 donors) (IL-2 2.5 ng/mL); test: as above; conditions: 72 h
[15] = test system: normal NK cells expanded with K562-aAPC; test: drug sensitivity score (DSS) (DSS units); higher = more sensitive; extreme values may be limits of the assay; conditions: 72 h; IL-2 2.5 ng/mL
Protocol: as §1

[16] = test system: DERL-7 (IL-2 2.5 ng/mL); test: as above; conditions: 72 h
[17] = test system: IMC-1 (IL-2 20 ng/mL); test: as above; conditions: 72 h
[18] = test system: KAI3 (IL-2 2.5 ng/mL); test: as above; conditions: 72 h
[19] = test system: KHYG-1 (IL-2 2.5 ng/mL); test: as above; conditions: 72 h
[20] = test system: NK-92 (IL-2 2.5 ng/mL); test: as above; conditions: 72 h
[21] = test system: NK-YS (IL-2 2.5 ng/mL); test: as above; conditions: 72 h
[22] = test system: NKL (IL-2 2.5 ng/mL); test: as above; conditions: 72 h
[23] = test system: SNK-6 (IL-2 2.5 ng/mL); test: as above; conditions: 72 h
[24] = test system: YT (IL-2 2.5 ng/mL); test: as above; conditions: 72 h
[25] = test system: normal primary NK cells, pool 1 (3 donors) (IL-2 2.5 ng/mL); test: as above; conditions: 72 h
[26] = test system: normal primary NK cells, pool 1 (3 donors), resting (IL-2 0 ng/mL); test: as above; conditions: 72 h
[27] = test system: normal primary NK cells, pool 2 (3 donors) (IL-2 2.5 ng/mL); test: as above; conditions: 72 h
[28] = test system: normal primary NK cells, pool 3 (3 donors) (IL-2 2.5 ng/mL); test: as above; conditions: 72 h

O=NN(CCCl)C(=O)NC1CCCCC1 [Lomustine] (max concentration tested 10000 nM)
percent inhibition of viability [%]
Conditions	1 nM	10 nM	100 nM	1000 nM	10000 nM
[1]	-0.77	-4.05	-3.71	-4.93	-6.08
[2]	-0.56	-0.17	-2.85	-3.2	-5.37
[3]	-5.94	-3.37	-4.39	-5.66	-4.09
[4]	-9.82	0.25	-6.64	-4.27	-3.54
[5]	-7.65	-1.52	-3.58	-1.68	0.4
[6]	-9.96	-19	-9.06	-13.7	-15.8
[7]	-6.33	-2.26	-1.76	0.49	4.09
[8]	-15	-16.4	-19.5	-23.3	-24.5
[9]	10.8	20.4	-2.23	6.58	-11
[10]	-3.7	-2.05	-4.42	-2.81	0.06
[11]	-1.98	-5.39	-3.98	-5.42	-0.06
[12]	-9.1	-11.4	-22.4	13.4	3.51
[13]	-12.4	-5.7	-9.1	-11.4	-2.45
[14]	-11.8	-8.98	-8.45	-6.32	-4.26

Conditions	drug sensitivity score
[15]	0
[16]	0
[17]	0
[18]	0
[19]	0
[20]	0
[21]	0
[22]	0
[23]	0
[24]	0
[25]	0
[26]	0
[27]	0
[28]	0

CCc1c(C(=O)C(N)=O)c2c(OCC(=O)O)cccc2n1Cc1ccccc1 [Varespladib] (max concentration tested 10000 nM)
percent inhibition of viability [%]
Conditions	1 nM	10 nM	100 nM	1000 nM	10000 nM
[1]	-11.2	-11.6	-12.4	3.91	4.13
[2]	-6.07	2.76	-0.45	-1.82	-5.52
[3]	-6.89	-8.73	-5.72	-2.45	-3.95
[4]	-1.85	-2.11	-10.8	-0.18	21.5
[5]	-3.76	-11.3	-0.03	8.53	2.8
[6]	-21.4	-19.5	-14.8	-0.75	31.5
[7]	-2.2	-6.12	-3.85	2.05	12.8
[8]	-9.5	-5.06	-13.2	2.87	-9.38
[9]	-7.52	-21.8	-13.8	-2.84	6.58
[10]	-8.21	-8.83	-14.4	-11.3	13.2
[11]	-5.21	-8.55	9.76	0.64	7.95
[12]	-21.1	-19.8	7.01	11.6	26.9
[13]	-5.85	-4.05	1.84	6.26	5.5
[14]	-8.31	-9.39	-3.85	-0.09	3.01

Conditions	drug sensitivity score
[15]	0
[16]	0
[17]	0
[18]	0.68
[19]	0
[20]	1.34
[21]	0.22
[22]	0
[23]	0
[24]	0.02
[25]	0
[26]	2.05
[27]	0
[28]	0

Nc1cccc2c1CN(C1CCC(=O)NC1=O)C2=O (stereo not given) [Lenalidomide] (max concentration tested 100000 nM)
percent inhibition of viability [%]
Conditions	10 nM	100 nM	1000 nM	10000 nM	100000 nM
[1]	-4.41	-0.84	-0.51	11.3	16.5
[2]	-8.15	-7.59	-6.54	-8.34	-1.1
[3]	-4.67	1.54	2.6	7.23	12.5
[4]	-8.97	1.64	-0.65	10.5	50.6
[5]	-5.45	0.35	0.75	5.6	18.1
[6]	-4.74	-0.2	7.52	10.4	35.1
[7]	-1.44	-1.49	0.99	3.35	15.9
[8]	-12.2	-2.95	-12.4	8.93	39.2
[9]	5.02	1.16	7.72	40.7	50.3
[10]	0.52	3.88	7	1.78	15.6
[11]	4.48	-7.64	6.17	0.68	22
[12]	1.29	-2.98	10.6	35.5	59.5
[13]	-16.8	-10.4	4.67	-3.79	13.3
[14]	-9.99	-13.1	8.3	-7.53	12.1

Conditions	drug sensitivity score
[15]	1.25
[16]	0
[17]	0.13
[18]	4.39
[19]	1.04
[20]	2.68
[21]	0.64
[22]	3.34
[23]	8.33
[24]	0.46
[25]	0.82
[26]	7.86
[27]	0.06
[28]	0.01

C[C@@H](Oc1cc(-c2cnn(C3CCNCC3)c2)cnc1N)c1c(Cl)ccc(F)c1Cl [Crizotinib] (max concentration tested 1000 nM)
percent inhibition of viability [%]
Conditions	0.1 nM	1 nM	10 nM	100 nM	1000 nM
[1]	-7.86	-6.31	-9.93	-2.46	19.7
[2]	-0.63	5.41	-1.8	-2.42	25.2
[3]	-4.84	-8.42	-0.95	5.13	7.41
[4]	-4.43	-13.2	-10.6	-0.67	30.1
[5]	-1.4	-6.18	0.71	2.28	20.6
[6]	-12.7	0.5	-4.15	16.4	34.7
[7]	-6.03	-14.8	-8.66	-7.59	15.5
[8]	-3.16	-3.23	-5.42	9.67	43.3
[9]	-16.1	-28	-15	-17.9	-4.35
[10]	-0.11	-5.24	-1.87	2.08	25.1
[11]	-4.24	-0.87	8.61	7.22	32.6
[12]	-6.8	-15.6	-1.32	0.53	39.1
[13]	-7.13	-11.6	-1.57	-2.22	20.3
[14]	-11.7	-8.52	6.99	-0.76	18

Conditions	drug sensitivity score
[15]	0.44
[16]	0.81
[17]	0
[18]	1.25
[19]	0.95
[20]	3.72
[21]	0.12
[22]	3.75
[23]	0
[24]	1.25
[25]	2.41
[26]	1.99
[27]	0.49
[28]	0.4

CNC(=O)c1nn(C)c2c1C(C)(C)Cc1cnc(Nc3ccc(N4CCN(C)CC4)cc3)nc1-2 [Milciclib] (max concentration tested 10000 nM)
percent inhibition of viability [%]
Conditions	1 nM	10 nM	100 nM	1000 nM	10000 nM
[1]	4.02	-0.67	11	58	101
[2]	3.27	-10.3	4.85	67.1	98.4
[3]	-3.68	-8.88	-4.95	-5.54	101
[4]	2.07	-4.15	13.3	40	103
[5]	0.72	0.82	16.2	88.3	108
[6]	-4.06	-2.4	1.56	39	101
[7]	-3.1	-3.45	7.23	40.2	103
[8]	-13.6	-18.8	-12.2	37.9	106
[9]	2.94	-5.15	-12.8	17.8	93.1
[10]	1.63	0.13	-0.36	21	106
[11]	-4.67	-0.64	-2.17	41.2	94.1
[12]	-2.66	2.94	14.9	61.7	88.7
[13]	-6.1	-7.12	7.61	55.9	96.4
[14]	-13.5	-12.3	-7.15	27.3	98.8

Conditions	drug sensitivity score
[15]	12.8
[16]	13.6
[17]	5.2
[18]	10.3
[19]	18.2
[20]	10.8
[21]	10.9
[22]	10.7
[23]	8.04
[24]	8.93
[25]	10.6
[26]	13.5
[27]	12.2
[28]	9.53
